Test results from patent publication US20250255857A1, “METHODS OF TREATING ANDROGEN RECEPTOR-INDEPENDENT PROSTATE CANCER” (FOGHORN THERAPEUTICS INC., priority 2022, published 2025).

What was measured:
[1] = tested on: C42B prostate xenograft tumors; assay: C42B prostate xenograft tumor model, tumor growth inhibition; type: in vivo, mice; conditions: C42B CDX model, AR+; 30 mg/kg QD oral
Description: (§1) Procedure: The experimental details of the studies, including tumor model, mouse strain, cell number implanted, vehicle used, days of treatment, treatment details, and average tumor size at start of dosing are outlined in Table 1. All study mice were purchased from Beijing Anikeeper Biotech and Matrigel was utilized as a basement membrane for all xenograft models. All xenografts were engrafted subcutaneously in the right flank region. The vehicles and Compound 1 (3 mg/kg) were administered twice weekly (BIW) intraperitoneally and enzalutamide (30 mg/kg) was administered orally once daily (QD), when applicable. Tumor volumes and body weights were measured over the course of study, and doses were adjusted by body weight to achieve the proper dose in terms of mg/kg.

[2] = tested on: LNCaP prostate xenograft tumors; assay: LNCaP prostate xenograft tumor model, tumor growth inhibition; type: in vivo, mice
Description: as §1

[3] = tested on: VCAP human prostate cancer tumor cells; assay: VCaP CRPC CDX model in castrated mice (Example 6), tumor growth inhibition and tolerability; type: in vivo; conditions: castrated mice
Description: Procedure: The experimental details of the studies, including tumor model, mouse strain, cell number implanted, vehicle used, days of treatment, treatment details, and average tumor size at start of dosing are outlined in Table 7. All study mice were obtained and the studies were conducted at Pharmaron. Each mouse was inoculated subcutaneously on the right flank with the single cell suspension of VCAP human prostate cancer tumor cells (1×10^7) in 0.1 mL with Matrigel (1:1) in DMEM medium with 10% FBS for tumor development. The mice were castrated by removing the testes via a scrotal approach when the tumor volume reached 270 mm^3. After castration, the tumor volume decreased. Treatment started when the mean tumor volume grew back 265 mm^3. Based on tumor volume, mice were randomly assigned to respective groups using a computer-generated randomization procedure and treated according to the study design in Table 8.

[4] = tested on: VCaP prostate xenograft tumors; assay: VCaP prostate xenograft tumor model (Example 1), tumor growth inhibition; type: in vivo, mice; conditions: VCaP CDX model, AR V7+; 30 mg/kg QD oral
Description: as §1

[5] = tested on: 22Rv1 prostate xenograft tumors; assay: 22Rv1 prostate xenograft tumor model, tumor growth inhibition; type: in vivo, mice
Description: as §1

[6] = VCAP CRPC model, Enzalutamide at 30 mg/kg PO QD, 25 days
[7] = VCAP CRPC model, Enzalutamide at 30 mg/kg PO QD, 25 days, Day 57

CNC(=O)c1ccc(N2C(=S)N(c3ccc(C#N)c(C(F)(F)F)c3)C(=O)C2(C)C)cc1F [enzalutamide, reference compound]
TGI with Enzalutamide 30 mg/kg [1]: 68.5% | TGI with Enzalutamide 30 mg/kg ([2]; LNCaP CDX model, AR+, 30 mg/kg QD oral): 92.1% | tumor growth inhibition (TGI), in words ([2]; LNCaP xenograft, Compound 1 3 mg/kg BIW IP, enzalutamide 30 mg/kg QD oral): did lead to tumor growth inhibition | Tumor Growth % on Day 57 [3, 6]: 238 ± 9% | Tumor Size on Day 57 [3, 6]: 626 ± 28 mm3 | T/C [3, 7]: 76.7% | TGI [3, 7]: 23.3% | TGI ([3]; VCaP CRPC model, Compound 1 10 mg/kg, enzalutamide 30 mg/kg, day 57 after tumor inoculation): 23.3% | TGI with Enzalutamide 30 mg/kg [4]: 46.8% | TGI with Enzalutamide 30 mg/kg ([5]; 22RV1 CDX model, AR V7+, 30 mg/kg QD oral): 40.3% | TGI ([5]; 22Rv1 CDX model, Compound 1 3 mg/kg BIW IP, enzalutamide 30 mg/kg QD oral): 40.3%
